Measurements as given in US20240409585A1, “MACROCYCLIC IMMUNOMODULATORS” (priority 2021, published 2024).
Bridge positions count the residues as written; N and C are the ends. Square brackets hold non-standard residues; d marks the D form. Peptide text beside a SMILES is read from it. * marks the point of attachment. ξ: configuration not given here. Phe(4-(4-pyridyl)) = N[C@@H](Cc1ccc(-c2ccncc2)cc1)C(=O)O; Phe(4-COOH) = N[C@@H](Cc1ccc(C(=O)O)cc1)C(=O)O; Bip = N[C@@H](Cc1ccc(-c2ccccc2)cc1)C(=O)O; pY = N[C@@H](Cc1ccc(OP(=O)(O)O)cc1)C(=O)O; Phe(3-Me) = Cc1cccc(C[C@H](N)C(=O)O)c1; Val(3-OH) = CC(C)(O)[C@H](N)C(=O)O; 3Pal = N[C@@H](Cc1cccnc1)C(=O)O; 4Pal = N[C@@H](Cc1ccncc1)C(=O)O; Cha = N[C@@H](CC1CCCCC1)C(=O)O; Cit = NC(=O)NCCC[C@H](N)C(=O)O; Ile(3ξ) = CCC(C)[C@H](N)C(=O)O; NMeD = CN[C@@H](CC(=O)O)C(=O)O; Thr(3ξ) = CC(O)[C@H](N)C(=O)O; Pip = O=C(O)[C@@H]1CCCCN1; Carboxymethyl = O=C(O)C*; NMeA = CN[C@@H](C)C(=O)O; Nle = CCCC[C@H](N)C(=O)O; Orn = NCCC[C@H](N)C(=O)O; Dab = NCC[C@H](N)C(=O)O; Dap = NC[C@H](N)C(=O)O; Piv = CC(C)(C)C(=O)*; ξC = NC(CS)C(=O)O; Acm = CC(=O)NC*

The molecules below were run against T1, PE-labeled human PD-L1-Ig binding to Jurkat cell line over-expressing human PD-1 (Jurkat-PD-1) (Homo sapiens, UniProt Q15116) (assay: Jurkat-PD-1 Cell Binding High-Content Screening Assay (CBA): Method 1). Conditions: Jurkat HPDL1 PD1 IC50 (uM) (Method 1), Jurkat-hPD-1 cells, PE-labeled PD-L1-Ig 20 nM final.
T1 construct: expressed in transfected cells; host or cells: Jurkat
T1 sequence (Q15116 25-288): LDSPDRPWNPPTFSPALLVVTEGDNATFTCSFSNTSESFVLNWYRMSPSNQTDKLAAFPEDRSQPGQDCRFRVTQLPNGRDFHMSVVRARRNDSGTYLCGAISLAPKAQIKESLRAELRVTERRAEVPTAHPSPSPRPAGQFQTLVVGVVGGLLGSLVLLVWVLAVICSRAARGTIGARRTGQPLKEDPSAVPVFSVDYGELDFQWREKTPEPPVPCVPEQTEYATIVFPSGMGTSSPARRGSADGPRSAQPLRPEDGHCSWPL

SMILES | IC50
CC(C)C[C@@H]1NC(=O)[C@H](Cc2c[nH]c3ccccc23)NC(=O)[C@H](CC(=O)O)NC(=O)[C@H](Cc2ccc(OP(=O)(O)O)cc2)NC(=O)[C@H](Cc2ccccc2)NC(=O)CSC[C@@H](C(=O)N[C@@H](C)C(N)=O)NC(=O)[C@H](CO)NC(=O)[C@H](C(C)C)NC(=O)[C@H](CC(C)C)NC(=O)[C@H](CC(N)=O)NC(=O)[C@@H](C)NC(=O)[C@H](C)N(C)C(=O)[C@H](C(C)C)NC(=O)[C@H](Cc2ccc(-c3ccccc3)cc2)NC1=O [Compound 1756] ({CH2CO}-F[pY]DWL[Bip]V[NMeA][dA]NLVSCA-NH2; thioether N-14) | 0.03 µM
CC(C)C[C@@H]1NC(=O)[C@H](CCN)NC(=O)[C@@H](CC(C)C)NC(=O)[C@H](C)N(C)C(=O)[C@H](CCCNC(=N)N)NC(=O)[C@H](Cc2ccc(-c3ccccc3)cc2)NC(=O)[C@H](C(C)C)NC(=O)[C@H](Cc2c[nH]c3ccccc23)NC(=O)[C@H](CC(=O)O)NC(=O)[C@H](Cc2ccc(O)cc2)NC(=O)[C@H](Cc2cccnc2)NC(=O)CSC[C@@H](C(=O)N[C@@H](C)C(N)=O)NC(=O)[C@H](CO)NC(=O)[C@H](C(C)C)NC1=O [Compound 1034] ({CH2CO}-[3Pal]YDWV[Bip]R[NMeA][dL][Dab]LVSCA-NH2; thioether N-14) | 0.05 µM

Same assay, conditions: Jurkat-hPD-1 cells, PE-labeled PD-L1-Ig 20 nM final; read-out: Jurkat HPDL1 PD1 IC50 (uM) (Method 1)

IC50 | SMILES
0.07 µM | Cc1cccc(C[C@@H]2NC(=O)[C@H](CC(=O)O)NC(=O)[C@H](Cc3ccc(C(=O)O)cc3)NC(=O)[C@H](Cc3ccncc3)NC(=O)CSC[C@@H](C(N)=O)NC(=O)[C@H]([C@@H](C)O)NC(=O)[C@H](C(C)C)NC(=O)[C@H](CC(C)C)NC(=O)[C@H](CCN)NC(=O)[C@@H](CC(C)C)NC(=O)[C@H](C)N(C)C(=O)[C@H](CCCNC(N)=O)NC(=O)[C@H](Cc3ccc(-c4ccccc4)cc3)NC(=O)[C@H](C(C)C)NC2=O)c1 [Compound 1898] ({CH2CO}-[4Pal][Phe(4-COOH)]D[Phe(3-Me)]V[Bip][Cit][NMeA][dL][Dab]LVTC-NH2; thioether N-14)
0.26 µM | CCCC[C@@H]1NC(=O)[C@H](CCN)NC(=O)[C@@H](CC(C)C)NC(=O)[C@H](C)N(C)C(=O)[C@H](CCCN)NC(=O)[C@H](Cc2ccc(-c3ccccc3)cc2)NC(=O)[C@H](C(C)C)NC(=O)[C@H](Cc2c[nH]c3ccccc23)NC(=O)[C@H](CC(=O)O)NC(=O)[C@H](Cc2ccc(O)cc2)NC(=O)[C@H](CC(N)=O)NC(=O)CSC[C@@H](C(=O)N[C@@H](C)C(N)=O)NC(=O)[C@H]([C@@H](C)O)NC(=O)[C@H](C(C)C)NC1=O [Compound 1267] ({CH2CO}-NYDWV[Bip][Orn][NMeA][dL][Dab][Nle]VTCA-NH2; thioether N-14)
0.03 µM | Cc1cccc(C[C@@H]2NC(=O)[C@H](CC(=O)O)NC(=O)[C@H](Cc3ccc(OCC(=O)O)cc3)NC(=O)[C@H](Cc3ccncc3)NC(=O)CSC[C@@H](C(N)=O)NC(=O)[C@H](CCC(N)=O)NC(=O)[C@H](C(C)C)NC(=O)[C@H](CC3CCCCC3)NC(=O)[C@H](CCN)NC(=O)[C@@H](CC(C)C)NC(=O)[C@H](C)N(C)C(=O)[C@H](Cc3ccc(OCC(=O)O)cc3)NC(=O)[C@H](Cc3ccc(-c4ccccc4)cc3)NC(=O)[C@H](Cc3ccc(OCC(=O)O)cc3)NC2=O)c1 [Compound 1659] ({CH2CO}-[4Pal]Y(Carboxymethyl)D[Phe(3-Me)]Y(Carboxymethyl)[Bip]Y(Carboxymethyl)[NMeA][dL][Dab][Cha]VQC-NH2; thioether N-14)
0.04 µM | Cc1cccc(C[C@@H]2NC(=O)[C@H](CC(=O)O)NC(=O)[C@H](Cc3ccc(OCC(=O)O)cc3)NC(=O)[C@H](CN)NC(=O)CSC[C@@H](C(=O)N[C@@H](CCN)C(N)=O)NC(=O)[C@H]([C@@H](C)O)NC(=O)[C@H](C(C)C)NC(=O)[C@H](CC3CCCCC3)NC(=O)[C@H](CCNC(=O)C(C)(C)C)NC(=O)[C@@H](CC(C)C)NC(=O)[C@H](C)N(C)C(=O)[C@H](Cc3ccc(OCC(=O)O)cc3)NC(=O)[C@H](Cc3ccc(-c4ccccc4)cc3)NC(=O)[C@H](Cc3ccc(OCC(=O)O)cc3)NC2=O)c1 [Compound 1864] ({CH2CO}-[Dap]Y(Carboxymethyl)D[Phe(3-Me)]Y(Carboxymethyl)[Bip]Y(Carboxymethyl)[NMeA][dL][Dab](Piv)[Cha]VTC[Dab]-NH2; thioether N-14)
0.03 µM | Cc1cccc(C[C@@H]2NC(=O)[C@H](CC(=O)O)NC(=O)[C@H](Cc3ccc(O)cc3)NC(=O)[C@H](CC(N)=O)NC(=O)CSC[C@@H](C(=O)N[C@@H](CCN)C(N)=O)NC(=O)[C@H](CCC(=O)O)NC(=O)[C@H](C(C)C)NC(=O)[C@H](CC3CCCCC3)NC(=O)[C@H](CCN)NC(=O)[C@@H](CC(C)C)NC(=O)[C@H](C)N(C)C(=O)[C@H](CCCNC(N)=O)NC(=O)[C@H](Cc3ccc(-c4ccccc4)cc3)NC(=O)[C@H](C(C)(C)O)NC2=O)c1 [Compound 1709] ({CH2CO}-NYD[Phe(3-Me)][Val(3-OH)][Bip][Cit][NMeA][dL][Dab][Cha]VEC[Dab]-NH2; thioether N-14)
0.48 µM | CC(C)C[C@@H]1NC(=O)[C@H](CCCNC(=N)N)NC(=O)[C@@H](CC(C)C)NC(=O)[C@H](C)N(C)C(=O)[C@H](CCCNC(=N)N)NC(=O)[C@H](Cc2ccc(-c3ccncc3)cc2)NC(=O)[C@H](C(C)C)NC(=O)[C@H](Cc2c[nH]c3ccccc23)NC(=O)[C@H](CC(=O)O)NC(=O)[C@H](Cc2ccc(O)cc2)NC(=O)[C@H](Cc2ccccc2)NC(=O)CSC[C@@H](C(=O)N[C@@H](C)C(N)=O)NC(=O)[C@H]([C@@H](C)O)NC(=O)[C@H](C(C)C)NC1=O [Compound 1078] ({CH2CO}-FYDWV[Phe(4-(4-pyridyl))]R[NMeA][dL]RLVTCA-NH2; thioether N-14)
0.03 µM | CC(=O)NCSC[C@H](NC(=O)C1CSCC(=O)N[C@@H](Cc2ccc(OCC(=O)O)cc2)C(=O)N[C@@H](CSCNC(C)=O)C(=O)N[C@@H](CC(=O)O)C(=O)N[C@@H](Cc2cccc(C)c2)C(=O)N[C@@H](CC(C)C)C(=O)N[C@@H](Cc2ccc(-c3ccccc3)cc2)C(=O)N[C@@H](C(C)C)C(=O)N(C)[C@@H](C)C(=O)N[C@H](CC(C)C)C(=O)N[C@@H](CC(N)=O)C(=O)N[C@@H](CC(C)C)C(=O)N[C@@H](C(C)C)C(=O)N[C@@H](CO)C(=O)N1)C(N)=O (stereo partly drawn) [Compound 1889] ({CH2CO}-Y(Carboxymethyl)C(Acm)D[Phe(3-Me)]L[Bip]V[NMeA][dL]NLVS[ξC]C(Acm)-NH2; thioether N-14)
0.14 µM | CCC(C)[C@@H]1NC(=O)[C@H](Cc2ccc(-c3ccccc3)cc2)NC(=O)[C@H](C(C)C)NC(=O)[C@H](Cc2c[nH]c3ccccc23)NC(=O)[C@H](CC(=O)O)NC(=O)[C@H](Cc2ccc(O)cc2)NC(=O)[C@H](CC(N)=O)NC(=O)CSC[C@@H](C(=O)N[C@@H](CC(=O)O)C(=O)N[C@@H](CCN)C(=O)O)NC(=O)[C@H](C(C)O)NC(=O)[C@H](C(C)C)NC(=O)[C@H](CC2CCCCC2)NC(=O)[C@H](CC(N)=O)NC(=O)[C@@H](CC(C)C)NC(=O)[C@H](C)N(C)C1=O (stereo partly drawn) [Compound 2002] ({CH2CO}-NYDWV[Bip][Ile(3ξ)][NMeA][dL]N[Cha]V[Thr(3ξ)]CD[Dab]-OH; thioether N-14)
0.7 µM | CC(C)C[C@@H]1NC(=O)[C@H](C(C)C)NC(=O)[C@H](Cc2ccccc2)NC(=O)[C@H](CC(=O)O)N(C)C(=O)[C@H](CCCNC(=N)N)NC(=O)[C@H](Cc2ccc(-c3ccccc3)cc2)NC(=O)[C@H](C(C)C)NC(=O)[C@H](Cc2c[nH]c3ccccc23)NC(=O)[C@H](CC(=O)O)NC(=O)[C@H](Cc2ccc(O)cc2)NC(=O)[C@H](Cc2ccccc2)NC(=O)CSC[C@@H](C(=O)NCC(N)=O)NC(=O)[C@H](CO)NC(=O)[C@H](C(C)C)NC1=O [Compound 1008] ({CH2CO}-FYDWV[Bip]R[NMeD]FVLVSCG-NH2; thioether N-14)
0.03 µM | CC(C)C[C@@H]1NC(=O)[C@H](CCCNC(=N)N)NC(=O)[C@@H](CC(C)C)NC(=O)[C@H](C)N(C)C(=O)[C@H](CCCNC(=N)N)NC(=O)[C@H](Cc2ccc(-c3ccccc3)cc2)NC(=O)[C@H](C(C)C)NC(=O)[C@H](Cc2c[nH]c3ccccc23)NC(=O)[C@H](CC(=O)O)NC(=O)[C@H](Cc2ccc(O)cc2)NC(=O)[C@H](CC(N)=O)NC(=O)CSC[C@@H](C(=O)NCC(N)=O)NC(=O)[C@H](CO)NC(=O)[C@H](C(C)C)NC1=O [Compound 1253] ({CH2CO}-NYDWV[Bip]R[NMeA][dL]RLVSCG-NH2; thioether N-14)
0.14 µM | CC[C@H](C)[C@@H]1NC(=O)[C@H](Cc2ccc(-c3ccccc3)cc2)NC(=O)[C@H](C(C)C)NC(=O)[C@H](Cc2c[nH]c3ccccc23)NC(=O)[C@H](CC(=O)O)NC(=O)[C@H](Cc2ccc(O)cc2)NC(=O)[C@H](CC(N)=O)NC(=O)CSC[C@@H](C(=O)N[C@@H](C)C(N)=O)NC(=O)[C@H]([C@@H](C)O)NC(=O)[C@H](C(C)C)NC(=O)[C@H](CC(C)C)NC(=O)[C@H](CCN)NC(=O)[C@@H](CC(C)C)NC(=O)[C@@H]2CCCCN2C1=O [Compound 1399] ({CH2CO}-NYDWV[Bip]I[Pip][dL][Dab]LVTCA-NH2; thioether N-14)
0.04 µM | Cc1cccc(C[C@@H]2NC(=O)[C@H](CC(=O)O)NC(=O)[C@H](Cc3ccc(OCC(=O)O)cc3)NC(=O)[C@H](CN)NC(=O)CSC[C@@H](C(N)=O)NC(=O)[C@H](CC(N)=O)NC(=O)[C@H](C(C)C)NC(=O)[C@H](CC3CCCCC3)NC(=O)[C@H](CCN)NC(=O)[C@@H](CC(C)C)NC(=O)[C@H](C)N(C)C(=O)[C@H](Cc3ccc(OCC(=O)O)cc3)NC(=O)[C@H](Cc3ccc(-c4ccccc4)cc3)NC(=O)[C@H](Cc3ccc(OCC(=O)O)cc3)NC2=O)c1 [Compound 1647] ({CH2CO}-[Dap]Y(Carboxymethyl)D[Phe(3-Me)]Y(Carboxymethyl)[Bip]Y(Carboxymethyl)[NMeA][dL][Dab][Cha]VNC-NH2; thioether N-14)
0.01 µM | CC(C)C[C@@H]1NC(=O)[C@H](CCN)NC(=O)[C@@H](CC(C)C)NC(=O)[C@H](C)N(C)C(=O)[C@H](CCCNC(N)=O)NC(=O)[C@H](Cc2ccc(-c3ccccc3)cc2)NC(=O)[C@H](C(C)C)NC(=O)[C@H](Cc2c[nH]c3ccccc23)NC(=O)[C@H](CC(=O)O)NC(=O)[C@H](Cc2ccc(OCC(=O)O)cc2)NC(=O)[C@H](Cc2cccnc2)NC(=O)CSC[C@@H](C(=O)N[C@@H](C)C(N)=O)NC(=O)[C@H]([C@@H](C)O)NC(=O)[C@H](C(C)C)NC1=O [Compound 1331] ({CH2CO}-[3Pal]Y(Carboxymethyl)DWV[Bip][Cit][NMeA][dL][Dab]LVTCA-NH2; thioether N-14)
